Measured values taken from ChEMBL document CHEMBL5303573, “Mapping human microbiome drug metabolism by gut bacteria and their genes” (Nature, 2019).

How the values were obtained:
[1] = bacteroides intestinalis, 12 h, 2 µM
[2] = The drug is tested on Blautia hansenii strain: DSM20583 for biotransformation. The drug concentrations were measured before and after a 12-h incubation by liquid-chromatography-coupled mass spectrometry (LC–MS); conditions: 2 µM
[3] = The drug is tested on Bifidobacterium longum subsp. Infantis strain: CCUG52486 for biotransformation. The drug concentrations were measured before and after a 12-h incubation by liquid-chromatography-coupled mass spectrometry (LC–MS); conditions: 2 µM
[4] = bifidobacterium adolescentis, 12 h, 2 µM
[5] = The drug is tested on Bacteroides pectinophilus strain: ATCC43243 for biotransformation. The drug concentrations were measured before and after a 12-h incubation by liquid-chromatography-coupled mass spectrometry (LC–MS); conditions: 2 µM
[6] = enterocloster bolteae, 12 h, 2 µM
[7] = The drug is tested on Bacteroides fragilis strain: ATCC43859 for biotransformation. The drug concentrations were measured before and after a 12-h incubation by liquid-chromatography-coupled mass spectrometry (LC–MS); conditions: 2 µM
[8] = The drug is tested on Eubacterium ventriosum strain: ATCC27560 for biotransformation. The drug concentrations were measured before and after a 12-h incubation by liquid-chromatography-coupled mass spectrometry (LC–MS); type: ADME; set-up: dose 2 uM, timepoint 0 vs 12 hours; conditions: 2 µM
[9] = The drug is tested on Clostridium symbiosum strain: ATCC14940 for biotransformation. The drug concentrations were measured before and after a 12-h incubation by liquid-chromatography-coupled mass spectrometry (LC–MS); conditions: 2 µM
[10] = bacteroides fragilis, 12 h, 2 µM
[11] = The drug is tested on Edwardsiella tarda strain: ATCC23685 for biotransformation. The drug concentrations were measured before and after a 12-h incubation by liquid-chromatography-coupled mass spectrometry (LC–MS); conditions: 2 µM
[12] = The drug is tested on Eubacterium hallii strain: DSM3353 for biotransformation. The drug concentrations were measured before and after a 12-h incubation by liquid-chromatography-coupled mass spectrometry (LC–MS); conditions: anaerobutyricum hallii, 2 µM
[13] = bacteroides fragilis, 12 h, 2 µM; remark: listed apart in the source
[14] = The drug is tested on Ruminococcus gnavus strain: ATCC29149 for biotransformation. The drug concentrations were measured before and after a 12-h incubation by liquid-chromatography-coupled mass spectrometry (LC–MS); conditions: mediterraneibacter gnavus, 2 µM
[15] = The drug is tested on Bifidobacterium breve strain: DSM20213 for biotransformation. The drug concentrations were measured before and after a 12-h incubation by liquid-chromatography-coupled mass spectrometry (LC–MS); conditions: 2 µM
[16] = The drug is tested on Collinsella intestinalis strain: DSM13280 for biotransformation. The drug concentrations were measured before and after a 12-h incubation by liquid-chromatography-coupled mass spectrometry (LC–MS); conditions: 2 µM
[17] = The drug is tested on Providencia stuartii strain: ATCC25827 for biotransformation. The drug concentrations were measured before and after a 12-h incubation by liquid-chromatography-coupled mass spectrometry (LC–MS); conditions: 2 µM
[18] = The drug is tested on Bacteroides sp. WH2 strain: WH2 for biotransformation. The drug concentrations were measured before and after a 12-h incubation by liquid-chromatography-coupled mass spectrometry (LC–MS); conditions: bacteroides sp. wh2, 12 h, 2 µM
[19] = The drug is tested on Bacteroides xylanisolvens strain: DSM18836 for biotransformation. The drug concentrations were measured before and after a 12-h incubation by liquid-chromatography-coupled mass spectrometry (LC–MS); conditions: 2 µM
[20] = bacteroides thetaiotaomicron, 12 h, 2 µM

SMILES | Bacterial Biotransformation [1] | Bacterial Biotransformation [9] | Bacterial Biotransformation [13] | Bacterial Biotransformation [14] | Bacterial Biotransformation [18] | Bacterial Biotransformation [2] | Bacterial Biotransformation [3] | Bacterial Biotransformation [4] | Bacterial Biotransformation [5] | Bacterial Biotransformation [6] | Bacterial Biotransformation [7] | Bacterial Biotransformation [8] | Bacterial Biotransformation [10] | Bacterial Biotransformation [11] | Bacterial Biotransformation [12] | Bacterial Biotransformation [15] | Bacterial Biotransformation [16] | Bacterial Biotransformation [17] | Bacterial Biotransformation [19] | Bacterial Biotransformation [20]
COc1cc2nc(N3CCN(C(=O)c4ccco4)CC3)nc(N)c2cc1OC [PRAZOSIN] | Compound NOT metabolized | – | – | – | Compound NOT metabolized | Compound NOT metabolized | Compound NOT metabolized | Compound NOT metabolized | Compound NOT metabolized | Compound NOT metabolized | Compound NOT metabolized | Compound NOT metabolized | Compound NOT metabolized | Compound NOT metabolized | Compound NOT metabolized | Compound NOT metabolized | Compound NOT metabolized | Compound NOT metabolized | Compound NOT metabolized | Compound NOT metabolized
O=C1C(CC[S+]([O-])c2ccccc2)C(=O)N(c2ccccc2)N1c1ccccc1 (stereo not given) [SULFINPYRAZONE] | – | – | Compound metabolized | Compound NOT metabolized | – | Compound NOT metabolized | Compound NOT metabolized | Compound NOT metabolized | Compound NOT metabolized | Compound NOT metabolized | Compound metabolized | Compound NOT metabolized | Compound NOT metabolized | Compound NOT metabolized | Compound NOT metabolized | Compound NOT metabolized | Compound NOT metabolized | Compound NOT metabolized | Compound metabolized | Compound NOT metabolized
CC(CN(C)C)CN1c2ccccc2CCc2ccccc21.O=C(O)/C=C\C(=O)O (stereo not given) [TRIMIPRAMINE MALEATE] | Compound NOT metabolized | Compound NOT metabolized | – | Compound NOT metabolized | Compound NOT metabolized | Compound NOT metabolized | Compound NOT metabolized | Compound NOT metabolized | Compound NOT metabolized | Compound NOT metabolized | Compound NOT metabolized | Compound NOT metabolized | Compound NOT metabolized | Compound NOT metabolized | Compound NOT metabolized | Compound NOT metabolized | Compound NOT metabolized | Compound NOT metabolized | Compound NOT metabolized | Compound NOT metabolized
C[C@@H](c1ncncc1F)[C@](O)(Cn1cncn1)c1ccc(F)cc1F [VORICONAZOLE] | – | Compound NOT metabolized | Compound NOT metabolized | Compound NOT metabolized | Compound NOT metabolized | Compound NOT metabolized | Compound NOT metabolized | Compound NOT metabolized | Compound NOT metabolized | Compound NOT metabolized | Compound metabolized | Compound NOT metabolized | Compound metabolized | Compound NOT metabolized | Compound NOT metabolized | Compound NOT metabolized | Compound NOT metabolized | Compound NOT metabolized | Compound metabolized | –

Second part, led by results:

Bacterial Biotransformation [1] | Bacterial Biotransformation [9] | Bacterial Biotransformation [13] | Bacterial Biotransformation [14] | Bacterial Biotransformation [18] | SMILES | Bacterial Biotransformation [2] | Bacterial Biotransformation [3] | Bacterial Biotransformation [4] | Bacterial Biotransformation [5] | Bacterial Biotransformation [6] | Bacterial Biotransformation [7] | Bacterial Biotransformation [8] | Bacterial Biotransformation [10] | Bacterial Biotransformation [11] | Bacterial Biotransformation [12] | Bacterial Biotransformation [15] | Bacterial Biotransformation [16] | Bacterial Biotransformation [17] | Bacterial Biotransformation [19] | Bacterial Biotransformation [20]
Compound NOT metabolized | Compound NOT metabolized | Compound NOT metabolized | Compound NOT metabolized | Compound NOT metabolized | CC(C)(C)N.CCC[C@H](N[C@@H](C)C(=O)N1[C@H](C(=O)O)C[C@@H]2CCCC[C@@H]21)C(=O)OCC [PERINDOPRIL ERBUMINE] | Compound NOT metabolized | Compound NOT metabolized | Compound NOT metabolized | Compound NOT metabolized | Compound NOT metabolized | Compound NOT metabolized | Compound NOT metabolized | Compound NOT metabolized | Compound NOT metabolized | Compound NOT metabolized | Compound NOT metabolized | Compound NOT metabolized | Compound NOT metabolized | Compound NOT metabolized | –
Compound NOT metabolized | Compound NOT metabolized | Compound NOT metabolized | Compound NOT metabolized | Compound NOT metabolized | Nc1nc2ccc(OC(F)(F)F)cc2s1 [RILUZOLE] | Compound metabolized | Compound NOT metabolized | Compound NOT metabolized | Compound NOT metabolized | Compound NOT metabolized | Compound metabolized | – | Compound NOT metabolized | Compound NOT metabolized | Compound NOT metabolized | Compound NOT metabolized | Compound NOT metabolized | Compound NOT metabolized | Compound metabolized | Compound NOT metabolized
– | Compound NOT metabolized | Compound NOT metabolized | Compound NOT metabolized | Compound NOT metabolized | CC(C)NCC(O)c1ccc(NS(C)(=O)=O)cc1 (stereo not given) [SOTALOL] | Compound NOT metabolized | Compound NOT metabolized | Compound NOT metabolized | Compound NOT metabolized | Compound NOT metabolized | Compound metabolized | – | Compound metabolized | Compound NOT metabolized | Compound NOT metabolized | Compound NOT metabolized | Compound NOT metabolized | Compound NOT metabolized | Compound NOT metabolized | Compound NOT metabolized
Compound NOT metabolized | Compound NOT metabolized | Compound NOT metabolized | Compound NOT metabolized | Compound NOT metabolized | OC(CCN1CCCCC1)(c1ccccc1)C1CCCCC1 (stereo not given) [TRIHEXYPHENIDYL] | Compound metabolized | Compound NOT metabolized | Compound NOT metabolized | Compound NOT metabolized | – | Compound NOT metabolized | Compound NOT metabolized | Compound NOT metabolized | Compound NOT metabolized | Compound NOT metabolized | Compound NOT metabolized | Compound NOT metabolized | Compound NOT metabolized | Compound NOT metabolized | –
